The record followed here is patent EP3915971A1, “PHENYL-S(O)N-PHENYLAMIDINES AND THE USE THEREOF AS FUNGICIDES” (Bayer Aktiengesellschaft, priority 2020, dated 2021).

System in the first data set: not listed separately
Nature of the data set: LogP measurement by HPLC on reversed phase columns (EEC directive 79/831 Annex V.A8). Format: physicochemical. The settings on record: reversed phase HPLC columns, method [a]: LC-UV, acidic range, 0.1% formic acid in water and acetonitrile as eluent (linear gradient 10% to 95% acetonitrile). Summed up: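 Reversed-phase HPLC with LC-UV per EEC directive 79/831 Annex V.A8, linear 10–95% acetonitrile gradient. Aqueous phase was 0.1% formic acid (acidic), 0.001 molar ammonium acetate (neutral) or 0.1% phosphoric acid (acidic), by method.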
Consider `CCc1cc(S(=O)(=O)c2ccccc2C)c(C)cc1N=CN(C)CC` [Example I-091, N-ethyl-N'-[2-ethyl-5-methyl-4-(2-methylphenyl)sulfonylphenyl]-N-methylmethanimidamide], for which the chromatographic logP came to 1.37.

`CCN(C)C=Nc1cc(C)c(Sc2ccccc2F)cc1C1CC1` [Example I-097, N'-[2-cyclopropyl-4-[(2-fluorophenyl)thio]-5-methylphenyl]-N-ethyl-N-methylmethanimidamide]: the chromatographic logP turned out to be 1.8.

`CCN(C)C=Nc1cc(C)c(Sc2ccccc2Cl)cc1Br` [Example I-098, N'-[2-bromo-4-[(2-chlorophenyl)thio]-5-methylphenyl]-N-ethyl-N-methylmethanimidamide] showed a chromatographic logP of 2.05.

As to `CCN(C)C=Nc1cc(C)c(Sc2ccccc2Cl)cc1C1CC1` [Example I-099, N'-[4-[(2-chlorophenyl)thio]-2-cyclopropyl-5-methylphenyl]-N-ethyl-N-methylmethanimidamide], the chromatographic logP is 1.99.

With `CCN(C)C=Nc1cc(C)c(Sc2ccccc2C#N)cc1C1CC1` [Example I-100, N'-[4-[(2-cyanophenyl)thio]-2-cyclopropyl-5-methylphenyl]-N-ethyl-N-methylmethanimidamide], the chromatographic logP turned out to be 1.6.

The molecule `CCN(C)C=Nc1cc(C)c(Sc2ccccc2C#N)cc1C(C)C` [Example I-101, N'-[4-[(2-cyanophenyl)thio]-2-isopropyl-5-methylphenyl]-N-ethyl-N-methylmethanimidamide] yielded a chromatographic logP of 1.72.

On to `CCc1cc(Sc2ccccc2C#N)c(C)cc1N=CN(C)CC` [Example I-102, N'-[4-[(2-cyanophenyl)thio]-2-ethyl-5-methylphenyl]-N-ethyl-N-methylmethanimidamide], for which the chromatographic logP came to 1.58.

Molecule `CCc1cc(Sc2ccccc2Cl)c(C)cc1N=CN(C)CC` [Example I-103, N'-[4-[(2-chlorophenyl)thio]-2-ethyl-5-methylphenyl]-N-ethyl-N-methylmethanimidamide] came in with a chromatographic logP of 1.99.

Still in this data set, the particulars now being: reversed phase HPLC columns, method [b]: LC-UV, neutral range, 0.001 molar ammonium acetate solution in water and acetonitrile as eluent (linear gradient 10% to 95% acetonitrile).
Consider `CCN(C)C=Nc1cc(C)c(Sc2ccccc2C#N)cc1C1CC1` [Example I-100, N'-[4-[(2-cyanophenyl)thio]-2-cyclopropyl-5-methylphenyl]-N-ethyl-N-methylmethanimidamide], for which the chromatographic logP turned out to be 4.74.

For the molecule `CCN(C)C=Nc1cc(C)c(Sc2ccccc2C#N)cc1C(C)C` [Example I-101, N'-[4-[(2-cyanophenyl)thio]-2-isopropyl-5-methylphenyl]-N-ethyl-N-methylmethanimidamide], the chromatographic logP came out at 5.3.

On to `CCc1cc(Sc2ccccc2C#N)c(C)cc1N=CN(C)CC` [Example I-102, N'-[4-[(2-cyanophenyl)thio]-2-ethyl-5-methylphenyl]-N-ethyl-N-methylmethanimidamide], for which the chromatographic logP was 4.95.

`CCc1cc(Sc2ccccc2Cl)c(C)cc1N=CN(C)CC` [Example I-103, N'-[4-[(2-chlorophenyl)thio]-2-ethyl-5-methylphenyl]-N-ethyl-N-methylmethanimidamide] had a chromatographic logP of 6.2.

Another data set has as its system Phakospora pachyrhizi. Nature of the data set: in vivo preventive test on Phakospora pachyrhizi (soybean rust). The conditions noted are these: Glycine max, 264 h; 500 ppm of active ingredient; preventive spray on young soybean plants, inoculation after 24 hours, evaluated 11 days after inoculation; 0% = control plants, 100% = no disease; read-out: efficacy. The procedure: Example A: in vivo preventive test on Phakospora pachyrhizi (soybean rust) [table] The active ingredients were made soluble and homogenized in a mixture of Dimethyl sulfoxide/Acetone/ /Tween® 80 and then diluted in water to the desired concentration. The young plants of soybean were treated by spraying the active ingredient prepared as described above. Control plants were treated only with an aqueous solution of Acetone/Dimethyl sulfoxide/ Tween® 80. After 24 hours, the plants were contaminated by spraying the leaves with an aqueous suspension of Phakospora pachyrhizi spores. The contaminated soybean plants were incubated for 24 hours at 24°C and at 100% relative humidity and then for 10 days at 24°C and at 70-80% relative humidity. The test was evaluated 11 days after the inoculation. 0% means an efficacy which corresponds to that of the control plants while an efficacy of 100% means that no disease was observed.
Regarding `CCc1cc(S(=O)(=O)c2ccccc2C)c(C)cc1N=CN(C)CC` [Example I-091, N-ethyl-N'-[2-ethyl-5-methyl-4-(2-methylphenyl)sulfonylphenyl]-N-methylmethanimidamide], the pest or weed control at 500 ppm was not below 70%.

`CCN(C)C=Nc1cc(C)c(Sc2ccccc2F)cc1C1CC1` [Example I-097, N'-[2-cyclopropyl-4-[(2-fluorophenyl)thio]-5-methylphenyl]-N-ethyl-N-methylmethanimidamide]: the pest or weed control at 500 ppm was not below 70%.

Take `CCN(C)C=Nc1cc(C)c(Sc2ccccc2Cl)cc1Br` [Example I-098, N'-[2-bromo-4-[(2-chlorophenyl)thio]-5-methylphenyl]-N-ethyl-N-methylmethanimidamide]: the pest or weed control at 500 ppm was not below 70%.

For the molecule `CCN(C)C=Nc1cc(C)c(Sc2ccccc2Cl)cc1C1CC1` [Example I-099, N'-[4-[(2-chlorophenyl)thio]-2-cyclopropyl-5-methylphenyl]-N-ethyl-N-methylmethanimidamide], the pest or weed control at 500 ppm is not below 70%.

For `CCN(C)C=Nc1cc(C)c(Sc2ccccc2C#N)cc1C1CC1` [Example I-100, N'-[4-[(2-cyanophenyl)thio]-2-cyclopropyl-5-methylphenyl]-N-ethyl-N-methylmethanimidamide], the pest or weed control at 500 ppm is not below 70%.

On to `CCN(C)C=Nc1cc(C)c(Sc2ccccc2C#N)cc1C(C)C` [Example I-101, N'-[4-[(2-cyanophenyl)thio]-2-isopropyl-5-methylphenyl]-N-ethyl-N-methylmethanimidamide], for which the pest or weed control at 500 ppm is not below 70%.

Turning to `CCc1cc(Sc2ccccc2C#N)c(C)cc1N=CN(C)CC` [Example I-102, N'-[4-[(2-cyanophenyl)thio]-2-ethyl-5-methylphenyl]-N-ethyl-N-methylmethanimidamide], the pest or weed control at 500 ppm is not below 70%.

With `CCc1cc(Sc2ccccc2Cl)c(C)cc1N=CN(C)CC` [Example I-103, N'-[4-[(2-chlorophenyl)thio]-2-ethyl-5-methylphenyl]-N-ethyl-N-methylmethanimidamide], the pest or weed control at 500 ppm is not below 70%.
